Measurements reported in article PMC4770093, “The role of kinetic context in apparent biased agonism at GPCRs” (Nature Communications, 2016).

Key:
[1] = biological target: T1, D2LR (Homo sapiens, UniProt P14416); assay: β-Arrestin-2 recruitment (BRET); assay type: cell-based; set-up: expressed in transfected cells
Protocol: β-Arrestin-2 recruitment. […] To assess β-arrestin-2 recruitment to the D2LR, the cells were transfected with 1 μg Rluc8-tagged D2LR, 4 μg YFP–β-arrestin-2 and 2 μg GRK2. […] The cells were incubated with Coelenterazine (Promega) at a final concentration of 5 μM for 5 min, followed by stimulation with the agonists for an additional 5 min before the BRET readings were captured.

[2] = biological target: T1, D2LR; assay: GαoB G protein activation (BRET); assay type: cell-based; set-up: expressed in transfected cells; settings: for Emax: relative to the maximal response of ropinirole;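 on all read-outs here: Flp-In-CHO cells stably expressing D2LR, transiently transfected, agonist-stimulated in HBSS at 37 °C, net BRET read after coelenterazine, vehicle control subtracted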
Protocol: (§1) G protein activation. Flp-In-CHO cells stably expressing the D2LR were seeded at a density of 2,000,000 cells per 10-cm dish and were transfected the following day using polyethylenimine as the transfection reagent. […] Twenty-four hours after transfection, the cells were plated into 96-well CulturPlates (PerkinElmer) and grown overnight. The cells were equilibrated in Hank's balanced salt solution at 37 °C before starting the experiment. The cells were stimulated with the agonists for the indicated timeframes when the BRET readings were captured. Coelenterazine (Promega) was added at a final concentration of 5 μM at least 3 min before measurement. […] Net BRET was determined by subtraction of the vehicle control from the agonist-induced response.

[3] = biological target: T1, D2LR; assay: Gαi1 G protein activation (BRET); assay type: cell-based; set-up: expressed in transfected cells
Protocol: as §1

[4] = biological target: T1, D2LR; assay: Quantification of biased agonism between pathways (operational model, LogBias); assay type: cell-based; set-up: expressed in transfected cells
Text: where Top and Bottom represent the maximal and minimal asymptote of the dose–response curve, [A] is the molar concentration of agonist and EC50 is the molar concentration of agonist required to give a response half way between bottom and top. Dose–response data were fitted to the following form of the operational model of agonism[12] to allow the quantification of biased agonism
where Em is the maximal possible response of the system, Basal is the basal level of response, KA represents the equilibrium dissociation constant of the agonist (A) and τ is an index of the signalling efficacy of the agonist that is defined as RT/KE, where RT is the total number of receptors and KE is the coupling efficiency of each agonist-occupied receptor, and n is the slope of the transducer function that links occupancy to response. The analysis assumes that the transduction machinery used for a given cellular pathway are the same for all agonists, such that the Em and transducer slope (n) are shared between agonists. Data for all compounds for each pathway were fit globally, to determine values of KA and τ. Biased agonism was quantified as previously described. […] The relative bias can then be calculated for each agonist at the two different signalling pathways by subtracting the Δlog(τ/KA) of one pathway from the other to give a ΔΔlog(τ/KA) value, which is a measure of bias. […] All affinity (pKi or pKA), potency (pEC50) and transduction ratio (log(τ/KA)) parameters were estimated as logarithms. When fold changes in bias are described, this was calculated by converting values of ΔΔlog(τ/KA) to the corresponding antilog value. […] Thus, as the application of t-tests and analyses of variance assume Gaussian distribution, estimating the parameters as logarithms allows valid statistical comparison. All results are expressed as the mean±s.e.m. As such, we performed a Brown–Forsythe test (Graphpad prism 6) to assure ourselves of equal variance when such parameters are compared.

[5] = biological target: T1, D2LR; assay: xCELLigence cellular impedance (CI) assay; assay type: cell-based; set-up: expressed in transfected cells; settings: for Emax: relative to the maximal response of ropinirole
Protocol: Changes in CI on ligand stimulation were measured using the xCELLigence system (Roche Applied Science). The baseline cell index of each well of a 96-well E-plate was measured in the presence of growth medium before cell seeding. Cells were seeded at a density of 20,000 cells per well and grown for 16–20 h followed by 4 h serum starvation. Cells were treated with the ligands and the cell index values were obtained immediately after ligand stimulation every 15 s for a total time of 90 min. The retrieved cell index values were then normalized by dividing the cell index at the time of ligand addition followed by subtraction of the vehicle control at each time point.

[6] = tested on: D2R; assay: Simulation of receptor occupancy over time from kon and koff; settings: simulation with a KD concentration of each agonist
Text: We extended these studies with a Tag-lite receptor binding assay using a D2R construct with an amino-terminal SNAP tag and the fluorescently labelled agonist (±)-4′-amino-2-(N-phenethyl-N-propyl)-amino-5-hydroxytetralin (PPHT). […] The association rate of a ligand is often thought to be diffusion limited. […] Using these kinetic parameters, we performed a simulation to estimate the receptor occupancy of a KD concentration of each agonist over time (Fig. 4e).
Kinetic binding parameters of kon (a), koff (b) and t1/2 (c) were determined in a competition kinetic binding assay using a Tag-lite binding assay and the fluorescently labelled agonist PPHT as the tracer ligand (Supplementary Table 6). […] All values are expressed as mean±s.e.m. from three experiments. (e) The values of kon and koff obtained in the competition kinetic assay were used to simulate receptor occupancy over time using equation (9) and the concentration of ligand equivalent to its KD (see Supplementary Table 6).
where Ymax reflects maximum binding of a concentration of ligand and kob is determined by equation (8).

[7] = 5 minute timepoint, dopamine as reference agonist

T1 sequence (P14416 whole entry): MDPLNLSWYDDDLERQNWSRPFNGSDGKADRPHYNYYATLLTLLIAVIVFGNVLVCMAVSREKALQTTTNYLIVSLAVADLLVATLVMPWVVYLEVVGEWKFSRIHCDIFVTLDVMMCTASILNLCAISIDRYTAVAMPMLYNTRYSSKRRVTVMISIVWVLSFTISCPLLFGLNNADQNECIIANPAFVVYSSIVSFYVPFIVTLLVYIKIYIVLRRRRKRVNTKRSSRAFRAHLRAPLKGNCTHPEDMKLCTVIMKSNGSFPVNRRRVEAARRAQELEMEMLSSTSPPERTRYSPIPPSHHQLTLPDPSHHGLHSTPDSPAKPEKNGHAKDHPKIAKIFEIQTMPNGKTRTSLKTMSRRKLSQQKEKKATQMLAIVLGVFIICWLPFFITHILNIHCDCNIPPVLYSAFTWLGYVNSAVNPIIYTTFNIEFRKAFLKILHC

In the case of `CCCN(CCC)CCc1cccc2c1CC(=O)N2` [Ropinirole, ropinirole], the “Log(τ/KA) β-arrestin2” value [1] is reported as 6.48 ± 0.15, the “ΔLog(τ/KA) β-arrestin2” value [1] is reported as 0.14 ± 0.20 and the “Log(τ/KA) GαoB activation” value [2] is reported as 7.08 ± 0.08. The “pEC50 Gao” value [2] was 7.33, the “ΔLog(τ/KA) GαoB activation” value [2] was -0.16 ± 0.11 and the EC50 ([2]; 2 min) was 107 nM. For the same compound, the Emax ([2]; 2 min) was 100%, the EC50 ([2]; 5 min) was 95.5 nM and the Emax ([2]; 5 min) was 100%. The EC50 ([2]; 10 min) was 67.6 nM, the Emax ([2]; 10 min) was 100% and the Emax ([2]; 15 min) was 100%. For the same compound, the EC50 ([2]; 30 min) was 30.9 nM, the Emax ([2]; 30 min) was 100% and the EC50 ([2]; 45 min) was 41.7 nM. The Emax ([2]; 45 min) was 100%, the EC50 ([2]; 60 min) was 51.3 nM and the Emax ([2]; 60 min) was 100%. The EC50 ([2]; 75 min) was 39.8 nM, the Emax ([2]; 75 min) was 100% and the EC50 ([2]; 90 min) was 43.7 nM. The Emax ([2]; 90 min) was 100%, the “change in potency over time in the GαoB activation assay” value ([2]; time points from 2 to 90 min) was “no change in potency” and the “Log(τ/KA) Gαi1 activation” value [3] was 6.75 ± 0.09. For the same compound, the “ΔLog(τ/KA) Gαi1 activation” value [3] was -0.43 ± 0.13, the “LogBias CI – pERK1/2” value [4] was -0.11 ± 0.10 and the “LogBias Gαi1 – pERK1/2” value [4] was -0.31 ± 0.15. The “LogBias GαoB – pERK1/2” value [4] was -0.04 ± 0.14, the “LogBias cAMP – pERK1/2” value [4] was -0.27 ± 0.10 and the “LogBias β-arr2 – pERK1/2” value [4] was 0.26 ± 0.21. For the same compound, the “LogBias Gαi1 – CI” value [4, 7] was -0.19 ± 0.15, the “LogBias Gαi1 – GαoB” value [4, 7] was -0.26 ± 0.18 and the “LogBias Gαi1 – cAMP” value [4, 7] was -0.03 ± 0.15. The “LogBias GαoB – CI” value [4, 7] was 0.07 ± 0.13, the “LogBias GαoB – cAMP” value [4, 7] was 0.23 ± 0.13 and the “LogBias cAMP – CI” value [4, 7] was -0.16 ± 0.09. For the same compound, the “LogBias β-arr2 – CI” value [4, 7] was 0.38 ± 0.21, the “LogBias β-arr2 – Gαi1” value [4, 7] was 0.57 ± 0.24 and the “LogBias β-arr2 – GαoB” value [4, 7] was 0.31 ± 0.23. For the same compound, the “LogBias β-arr2 – cAMP” value [4, 7] was 0.54 ± 0.21, the “Log(τ/KA) Cellular impedance” value [5] was 8.32 ± 0.05 and the “ΔLog(τ/KA) Cellular impedance” value [5] was -0.23 ± 0.06. It also gave an EC50 ([5]; 2 min) of 4.68 nM, an Emax ([5]; 2 min) of 100% and an EC50 ([5]; 5 min) of 5.13 nM. The Emax ([5]; 5 min) was 100%, the EC50 ([5]; 10 min) was 7.94 nM and the Emax ([5]; 10 min) was 100%. For the same compound, the EC50 ([5]; 15 min) was 10.7 nM, the Emax ([5]; 15 min) was 100% and the EC50 ([5]; 30 min) was 17 nM. The Emax ([5]; 30 min) was 100%, the EC50 ([5]; 45 min) was 19.5 nM and the Emax ([5]; 45 min) was 100%. The EC50 ([5]; 60 min) was 24 nM, the Emax ([5]; 60 min) was 100% and the EC50 ([5]; 75 min) was 28.2 nM. For the same compound, the Emax ([5]; 75 min) was 100%, the EC50 ([5]; 90 min) was 34.7 nM and the Emax ([5]; 90 min) was 100%. The “time to maximal receptor occupancy” value [6] was ≤ 1 min.
